Key:
[1] = test system: expert panel members; test: Sucrose Equivalent Value (SEV): expert panel matches the test solution to stock sucrose solutions; assay type: in vivo; details: for effect on sweetness of the sucrose solution (dose response curve): 0 to 1000 ppm in pH 3.2 buffered 5% sucrose; for effect on sweetness (SEV) of sucrose solutions: 500 ppm in pH 3.2 buffered 0%, 3%, 5%, 7% and 9% sucrose; for SEV (%): 500 ppm of a single potentiator in pH 3.2 buffered 5% sucrose
Protocol: One method of measuring the perceived sweetness of a solution is to match it with a stock sucrose solution of known concentration. In the present experiments, the compound of interest is added at a predetermined concentration to a pH 3.2 buffered solution containing 5% sucrose. A number of expert panel members then taste the solution and compare it to a battery of stock sucrose solutions ranging from 3% to 15% at increments of 1%. Each panel member decides which sucrose solution is equisweet with the solution containing the compound of interest. The mean value is then reported as the SEV. Results are reported to 1 decimal place.
In accordance with this methodology, 3-HB was added to a pH 3.2 buffered solution containing 5% sucrose to produce solutions containing from 0 to 1000 ppm 3-HB in 100 ppm increments. […] From FIG. 1 it is apparent that as the dosage of 3-HB increases so does the sweetness of the resultant solution. However the effect is non-linear with each incremental addition having a diminishing effect. The maximum sweetness attainable would appear to be about 7.9% SEV (based on a 5% sucrose solution).
The same methodology as described in Example 7 was repeated with 2,4-DHB in place of 3-HB, to produce the dose response curve for 2,4-DHB (FIG. 2). […] The maximum attainable sweetness would appear to be about 6.7% SEV (based on a 5% sucrose solution).
500 ppm of a sweetener potentiator was added to a pH 3.2 buffered solution containing 5% sucrose and the SEV of the resultant solution determined. […]
pH 3.2 buffered solutions were prepared containing 0%, 3%, 5%, 7% and 9% sucrose. 500 ppm of 2,4-DHB acid, 500 ppm of the sodium salt of 2,4-DHB and 500 ppm of the potassium salt of 2,4-DHB were added individually to each of the sucrose solutions. The SEV for each of the solutions was then determined.
500 ppm of 3-aminobenzoic acid and 500 ppm of 4-aminobenzoic acid were individually added to separate pH 3.2 buffered solutions containing 5% sucrose and the SEVs of the resultant solutions were determined. The SEV of 3-aminobenzoic acid was about 7%, i.e., increased the sweetness intensity of 5% sucrose to about 7%. The SEV of 4-aminobenzoic acid was about 5.5-6%, i.e., increased the sweetness intensity of 5% sucrose to about 5.5-6%.

[2] = 0.2% added to a 5% sucrose solution; Canadian Patent No. 1208966; cited from earlier work

Row | SMILES | effect on sweetness of the sucrose solution (dose response curve) [1] | effect on sweetness (SEV) of sucrose solutions [1] | SEV (%) [1] [%] | also measured
1 | O=C(O)c1ccc(O)cc1O [2,4-DHB, 2,4-dihydroxybenzoic acid] | enhances the sweetness of the sucrose solution | enhances the sweetness of the sucrose solution in every case |  | effect on sweetness of sucrose solution [2]: increase in sweetness
2 | O=C(O)c1cc(O)c(O)c(O)c1 [3,4,5-THB, 3,4,5-tryhydroxybenzoic acid] |  |  | 5.1 | 
3 | O=C(O)c1ccc(O)c(O)c1 [3,4-DHB, 3,4-dihydroxybenzoic acid] |  |  | 6.4 | 
4 | O=C(O)c1cccc(O)c1 [3-HB, 3-hydroxybenzoic acid] | enhances the sweetness of the sucrose solution |  |  | 
5 | O=C([O-])c1ccc(O)cc1O.[K+] [potassium salt of 2,4-DHB] |  | enhances the sweetness of the sucrose solution in every case |  | 
6 | O=C([O-])c1ccc(O)cc1O.[Na+] [sodium salt of 2,4-DHB] |  | enhances the sweetness of the sucrose solution in every case |  | 
